We go through one molecule from patent publication US5416070A, “Composition for macrophage activation” (ImmunoTherapeutics, Inc., priority 1990, dated 1995).

Data set [1] deals with Balb/c mice. Description: Adjuvant activity on antibody producing cells: plaque forming units per spleen after SRBC immunization. It counts as in vivo. How it is done:
The efficacy of the compound of the invention in inducing antibody response was evaluated in an immuno-compromised model using aged Balb/c mice and in normal mice using a suboptimal dose of the immunogen.
[…] The spleen was removed on day 4 and assayed for plaque forming units.
The results (Table 1) indicated a total of 66×10^3 plaque forming units (PFU) per spleen for controls, 198×10^3 PFU per spleen for mice receiving SRBC mixed with 0.1 mg MDP and 442×10^3 PFU for mice receiving SRBC mixed with 0.1 mg. of a compound of the invention IIA. Similarly, young Balb/c mice were immunized intraperitoneally with a suboptimal dose of SRBC (1×10^7 cells) in saline or mixed with 0.01 of 0.1 mg of MDP or IIA.

In data set [2] the test system is Meth A sarcoma. The data set can be described thus: Antitumor activity in saline in the Meth A sarcoma. It counts as in vivo, mice. How it is done: BALB/C female mice, age 7 weeks, were injected subcutaneously with 1×10^6 Meth A tumor cells. Eight days later the animals were treated intravenously with either saline (control) or Compound IIA at a dose of 1, 10, or 100 micrograms (μg). Each group consisted of 4 animals. Tumor measurements were taken every 2 days for 10 days and the mice followed for 60 days until cured or death due to tumor occurred.

Data set [3] relates to human peripheral blood monocytes. The data set can be described thus: Activation of human peripheral blood monocytes to the tumoricidal state (I125 labeled A-375 tumor cells). The format is cell-based. To be noted: effector:target 10:1, A-375 tumor cells, 72 hours. The method, then: Monocyte tumoricidal activity was determined by the method of Fogler and Fidler (W. E. Fogler and I. J. Fidler, J. Immunol., 136; 2311-2317, 1986). Briefly, human peripheral blood monocytes were isolated by gradient centrifugation on 46% Percoll. Monocytes were then cultured in suspension for 18 hours in RPMI 1640 media containing 5% human sera with or without 1.0 μg/ml of Compound IIA at 1×10^6 monocytes/ml. After incubation monocytes were washed, and 1×10^5 or 5×10^4monocytes allowed to attach to wells of a 96-well microplate for 1 hour, then the plate was washed to remove non-adherent cells; to this, 1×10^4 I^125 labeled A-375 tumor cells were added. Monocytes were cultured with tumor cells for 72 hours. At the end of the 72 hour co-culture period, the plates were washed to remove non-adherent-non-viable tumor cells and the remaining adherent viable I^125 labeled tumor cells determined by lysing the cells with sodium dodecyl sulfate and counting radioactivity in a Gamma Counter.
Activation of human peripheral blood monocytes by liposomes consisting of PC and PG (7:3) containing Compound IIA was determined as described above.
The effector:target cell ratio was 10:1. The cultures contained a final concentration of 1.0 μg/ml of MDP, Compound IIA or Compound IIA in liposomes.

The subject of data set [4] is Meth A sarcoma. Description: Effect with lipopolysaccharide on growth of Meth A sarcoma in mice. The format is in vivo. The method, then: BALB/C mice 7-8 weeks of age were injected subcutaneously with Meth A sarcoma (1×10^6 cells) and treated intravenously on day 8 with 10 μg of lipopolysaccharide (LPS) from Salmonella typhimurium ReG 30/21 alone or combined with 1 or 10 μg of MDP or Compound IIA. Tumor growth was compared on day 6 following therapy.
The animals were followed and the percent cured determined at 60 days post-injection.

In data set [5] the test system is human peripheral blood monocytes. The data set can be described thus: Activation of monocytes in vitro measured by production of Interleukin-1-beta (ELISA). It counts as cell-based. Conditions: 24 Hours. The method, then:
Human peripheral blood monocytes were isolated by density gradient centrifugation as noted in Example 13. The cell number was adjusted to 5×10^5 cells per ml in RPM 1640 media containing 5% human AB negative serum. One ml containing 5×10^5 cells were placed in individual wells of 24-well Plastek tissue culture plate. Various drugs in a volume of 0.5 ml were added at time zero. The compounds were also formulated in liposomes as described in Example 10, and added in a volume of 0.5 ml to individual wells of a 24-well Plastek tissue culture plate. The cells were incubated at 37° C. in a 5% CO2 atmosphere. Aliquots (0.1 ml) of the supernatant were removed at 24 hours and frozen at -20° C. These samples were subsequently assayed for TNF as described in Example 33 and Interleukin-1-beta (IL-1β) using a commercially available ELISA kit from Cistron (Pine Brook, N.J.).
In general terms: In an ELISA, binding on a coated surface is turned into a signal by an enzyme label.

For data set [6], the system named is Human peripheral blood mononuclear cells. Description: Activation of monocytes in vitro measured by in vitro tumor cell cytotoxicity. The format is cell-based. How it is done:
Human peripheral blood mononuclear cells were isolated by density gradient centrifugation on 46% Percoll. 1×10^5 of the mononuclear cells were plated onto Falcon microliter plates and allowed to adhere for two hours. The non-adherent cells were removed and fresh media added. The cells were allowed to incubate for 24 hours after which various concentrations of the drug either alone or incorporated in liposomes was added. After 24 hours, the plates were washed and 1×10^4 I^125 labelled target cells were added. Following an additional 72 hours of coincubation, the plates were washed and the residual radioactivity determined. The specific cytotoxicity was calculated from the formula: [formula] The results of cytotoxicity assay of various compounds alone or incorporated in liposomes at various concentrations is given in Table 6.

Where [7] appears, read: 1.0 μg combined with 10 μg LPS i.v. on day 8.
The mark [8] stands for this setting: 10 μg combined with 10 μg LPS i.v. on day 8.

The structures appear in SMILES notation.

Regarding `CCCCCCCCCCCCCCCC(=O)OCC(COC(=O)C(C)NC(=O)CCC(NC(=O)C(C)NC(=O)C(C)OC1C(NC(C)=O)C(O)OC(CO)C1OC1OC(CO)C(O)C(O)C1NC(C)=O)C(N)=O)OC(=O)CCCCCCCCCCCCCCC` [Compound IIA, 4-O-[2-acetamido-2-deoxy-β-D-glucopyranosyl]-2-acetamido-2-deoxy-3-O-[D-2-propanoyl-L-alanyl-D-isoglutaminyl-L-alanyl-1,2-dipalmitoyl-sn-glycerol]-D-glucopyranose], the “PFU ×10^3” value in data set [1] (3 months old mice, SRBC inoculum 1 × 10^7 i.p., 0.01 mg/mouse) is 184 ×10^3; in data set [1] (3 months old mice, SRBC inoculum 1 × 10^7 i.p., 0.1 mg/mouse) it was 468 ×10^3; in data set [1] (18 months old mice, SRBC inoculum 1 × 10^8 i.p., 0.1 mg/mouse, spleen day 4) it was 442 ×10^3. The “plaque forming units (PFU) per spleen” value in data set [1] (aged Balb/c mice (18 months), SRBC mixed with 0.1 mg) was 442×10^3 PFU per spleen. The “animals exhibiting complete regression of tumor” value in data set [2] (100 μg i.v.) is recorded as “one of four”. The “decrease in tumor growth” value in data set [2] (day 6 after therapy, single i.v. dose of 100 μg) was 50%. Besides, the “PERCENT CYTOTOXICITY” value was found to be 59% in data set [3] (Experiment 1, 1.0 μg/ml) and 37% in data set [3] (Experiment 2, 1.0 μg/ml). For the same molecule, the “Complete Regression at Day 60” value in data set [4] (setting [7]) turned out to be 50%; in data set [4] (setting [8]) it was 100%. Further, the figures for the “Percent Change in Average Tumor Area 6 Days Post Treatment” value in data set [4] (setting [7]) and in data set [4] (setting [8]) were -56% and -67%, respectively. Further, the “interaction with LPS” value in data set [4] (Table 3, Meth A sarcoma) is given as “synergistic activity”. Moreover, the “IL-1-beta (pg/ml) at given Concentration of Compound” value in data set [5] (Table 8, Experiment 1, 0.01 μg/ml) was 260 pg/mL; in data set [5] (Table 8, Experiment 1, 0.1 μg/ml), 220 pg/mL; in data set [5] (Table 8, Experiment 1, 1.0 μg/ml), 244 pg/mL; in data set [5] (Table 8, Experiment 1, 10.0 μg/ml), 264 pg/mL. In addition, the Cytotoxicity in data set [6] (PC/PS liposomes (7:3), 0.1 μg/ml) was determined as 1.0%; in data set [6] (PC/PS liposomes (7:3), 1.0 μg/ml), 8.0%; in data set [6] (PC/PS liposomes (7:3), 10.0 μg/ml), 12.0%; in data set [6] (no formulation given (drug alone), 0.1 μg/ml) it was 5.0%; in data set [6] (no formulation given (drug alone), 1.0 μg/ml), 4.0%; in data set [6] (no formulation given (drug alone), 10.0 μg/ml), 3.0%.
